# Test results as given in patent publication US20210386367A1, “DEVICES AND SYSTEMS FOR GASTROINTESTINAL MICROBIOME DETECTION AND MANIPULATION” (Progenity, Inc., priority 2018, published 2021).
# “And” between values parts separate entries of the source, which are not always exact repeats. Equal entries are not always repeated. Where two headings read alike, the source gives them in different places.
# How the values were obtained:
# [1] = tested on: Bacteroides fragilis clinical isolates; assay: MIC distribution against clinical isolates; type: cell-based
# Method in brief: (§1)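 MIC is the lowest agent concentration preventing growth, determined by broth or agar dilution with serial compound dilutions and incubation under appropriate conditions (e.g., overnight at 37° C.). MIC90 is the concentration inhibiting ≥90% of isolates in the test population.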
# [2] = tested on: Streptococcus agalactiae clinical isolates; assay: MIC distribution against clinical isolates; type: cell-based; details: 20 S. agalactiae isolates
# Method in brief: as §1
# [3] = tested on: Veillonella spp. clinical isolates; assay: MIC distribution against clinical isolates; type: cell-based
# Excerpt: (n=19 V. parvula, n=9 Veillonella spp., n=1 Veillonella dispr., n=1 V. atypica) clinical isolates (μg/mL).
# As used herein, “minimum inhibitory concentration” or “MIC” refers to the lowest concentration of an antimicrobial agent, for example, an antimicrobial agent as described herein, required to inhibit the growth of an organism. […] “MIC90” represents the MIC value at which ≥90% of the strains within a test population are inhibited; the 90th percentile.
# Many susceptibility testing methods are known in the art and can be used as described herein (see, e.g., Jorgensen and Ferraro (2009) Clinical Infectious Diseases 49:1749-1755; and Maurer et al. (2017) Infectious Disease Reports 9:6839; the entire contents of each of the foregoing are incorporated herein by reference). For example, antimicrobial susceptibility can be determined using conventional culture based methods such as the broth or agar dilution test. In these dilution tests, the bacterial isolate of interest is inoculated onto different media that include serial dilutions of an antimicrobial agent, and incubated under appropriate conditions (e.g., overnight at 37° C.) to allow for growth to occur. Following the incubation period, the media is examined to determine bacterial growth. The lowest concentration of antibiotic that prevents growth represents the minimal inhibitory concentration (MIC). Broth dilution tests can be miniaturized and mechanized allowing for reproducibility and high throughput.
# B. vulgatus = assay: Spontaneous mutation frequency and mutation prevention concentration (MPC); type: cell-based; details: B. vulgatus ATCC 8482
# Excerpt: (§2) As used herein, “spontaneous mutation frequency” refers to the rate at which mutations arise in a bacterium that can lead to resistance to develop to an antimicrobial agent. “Mutation prevention concentration” or “MPC” refers to the lowest concentration of antimicrobial agent above which the selective proliferation of resistant mutants is expected to occur only rarely.
# Escherichia coli = assay: as above; type: cell-based; details: for MPC: mutant prevention concentration
# Excerpt: as §2
# S. agalactiae = assay: as above; type: cell-based; details: S. agalactiae ATCC 13813
# Excerpt: as §2
# S. pneumonia = assay: as above; type: cell-based; details: S. pneumoniae ATCC 49619
# Excerpt: as §2
# S. pyogenes = assay: as above; type: cell-based; details: S. pyogenes ATCC 49399; mutant prevention concentration
# Excerpt: as §2
# Bacteroides fragilis = assay: Agar dilution MIC, 30 clinical isolates; type: cell-based
# Bacteroides non fragilis = assay: Agar dilution MIC, 29 clinical isolates; type: cell-based, Bacteroides spp.
# E. coli ATCC 25922 = assay: Broth microdilution MIC (time-kill study); type: cell-based, Escherichia coli
# E. coli MMX 1312 = assay: Broth microdilution MIC (time-kill study); type: cell-based, Escherichia coli
# S. pneumoniae ATCC 49619 = assay: Broth microdilution MIC (time-kill study); type: cell-based, Streptococcus pneumoniae
# B. ovatus MMX 3503 = assay: Broth microdilution MIC (time-kill study); type: cell-based, Bacteroides ovatus
# S. agalactiae ATCC 13813 = assay: Time-kill assay; type: cell-based, Streptococcus agalactiae; details: 2×, 4×, 8× MIC; 2, 6, 24 hr
# [4] = tested on: Bacteroides spp. (B. fragilis ATCC 25285, B. vulgatus, B. ovatus MMX 3503); assay: Agar dilution MIC (spontaneous mutation study; strain in conditions); type: cell-based
# [5] = MIC 8 μg/mL, 30 B. fragilis isolates
# [6] = MIC 16 μg/mL, 30 B. fragilis isolates
# [7] = MIC 32 μg/mL, 30 B. fragilis isolates
# [8] = MIC 64 μg/mL, 30 B. fragilis isolates
# [9] = MIC 0.5 μg/mL, 30 Veillonella spp. isolates
# [10] = MIC 1 μg/mL, 30 Veillonella spp. isolates
# [11] = MIC 2 μg/mL, 30 Veillonella spp. isolates
# [12] = MIC 4 μg/mL, 30 Veillonella spp. isolates
# [13] = MIC 8 μg/mL, 30 Veillonella spp. isolates
# [14] = MIC 16 μg/mL, 30 Veillonella spp. isolates
# [15] = MIC 32 μg/mL, 30 Veillonella spp. isolates
# [16] = ceftriaxone selection 4X MIC, 16 μg/mL
# [17] = ceftriaxone selection 8X MIC, 32 μg/mL
# [18] = mutant prevention concentration
# [19] = E. coli ATCC 25922, ceftriaxone selection 8X MIC, 0.5 μg/mL
# [20] = E. coli MMX 1312, ceftriaxone selection 4X MIC, 16 μg/mL
# [21] = E. coli MMX 1312, ceftriaxone selection 8X MIC, 32 μg/mL
# [22] = ceftriaxone selection 8X MIC, 0.5 μg/mL
# [23] = 30 Bacteroides fragilis clinical isolates
# [24] = 29 Bacteroides non-fragilis clinical isolates
structure (smiles),measurement,setting,value
CO/N=C(\C(=O)N[C@@H]1C(=O)N2C(C(=O)O)=C(CSc3nc(=O)c(=O)[nH]n3C)CS[C@H]12)c1csc(N)n1 [ceftriaxone],Cumulative percentage of isolates inhibited at MIC,[1]; [5],10.0%
same,Number of test isolates at MIC,[1]; [5],3
same,Cumulative percentage of isolates inhibited at MIC,[1]; [6],40.0%
same,Number of test isolates at MIC,[1]; [6],9
same,Cumulative percentage of isolates inhibited at MIC,[1]; [7],66.7%
same,Number of test isolates at MIC,[1]; [7],8
same,Cumulative percentage of isolates inhibited at MIC,[1]; [8],73.3%
same,Number of test isolates at MIC,[1]; [8],2
same,Cumulative percentage of isolates inhibited at MIC,[1]; listed as CTR,76.7% and 100.0%
same,Cumulative percentage of isolates inhibited at MIC,[2]; MIC 0.03 μg/mL,25.0%
same,Number of test isolates at MIC,[2]; MIC 0.03 μg/mL,5
same,Cumulative percentage of isolates inhibited at MIC,[2]; MIC 0.06 μg/mL,90.0%
same,Number of test isolates at MIC,[2]; MIC 0.06 μg/mL,1.3
same,Cumulative percentage of isolates inhibited at MIC,[2]; MIC […],100.0%
same,Number of test isolates at MIC,[2]; MIC […],2
same,Cumulative percentage of isolates inhibited at MIC,[3],100.0%
same,Number of test isolates at MIC,[3],1
same,Cumulative percentage of isolates inhibited at MIC,[3]; [9],10.0%
same,Number of test isolates at MIC,[3]; [9],3
same,Cumulative percentage of isolates inhibited at MIC,[3]; [10],23.3%
same,Number of test isolates at MIC,[3]; [10],4
same,Cumulative percentage of isolates inhibited at MIC,[3]; [11],26.7%
same,Number of test isolates at MIC,[3]; [11],1
same,Cumulative percentage of isolates inhibited at MIC,[3]; [12],30.0%
same,Number of test isolates at MIC,[3]; [12],1
same,Cumulative percentage of isolates inhibited at MIC,[3]; [13],40.0%
same,Number of test isolates at MIC,[3]; [13],3
same,Cumulative percentage of isolates inhibited at MIC,[3]; [14],86.7%
same,Number of test isolates at MIC,[3]; [14],14
same,Cumulative percentage of isolates inhibited at MIC,[3]; [15],96.7%
same,Number of test isolates at MIC,[3]; [15],3
same,Average Count,B. vulgatus; [16],TNTC
same,Count 1,B. vulgatus; [16],TNTC
same,Count 2,B. vulgatus; [16],TNTC
same,Spontaneous Mutation Frequency,"B. vulgatus; ceftriaxone selection 4X MIC, 16 μg/mL, based on estimated count of >500 average CFU",>8.69 × 10^−8
same,Average Count,B. vulgatus; [17],0 CFU
same,Count 1,B. vulgatus; [17],0 CFU
same,Count 2,B. vulgatus; [17],0 CFU
same,Spontaneous Mutation Frequency,B. vulgatus; [17],≤1.74 × 10^−10
same,MPC,B. vulgatus; [18],32 µg/mL
same,Average Count,Escherichia coli; [19],0 CFU
same,Count 1,Escherichia coli; [19],0 CFU
same,Count 2,Escherichia coli; [19],0 CFU
same,Spontaneous Mutation Frequency,Escherichia coli; [19],≤7.41 × 10^−9
same,MPC,Escherichia coli; E. coli ATCC 25922,0.25 µg/mL
same,MPC,Escherichia coli; E. coli ATCC 35218,0.12 µg/mL
same,Average Count,Escherichia coli; [20],TNTC
same,Count 1,Escherichia coli; [20],TNTC
same,Count 2,Escherichia coli; [20],TNTC
same,Average Count,Escherichia coli; [21],TNTC
same,Count 1,Escherichia coli; [21],TNTC
same,Count 2,Escherichia coli; [21],TNTC
same,Average Count,S. agalactiae; [22],0 CFU
same,Count 1,S. agalactiae; [22],0 CFU
same,Count 2,S. agalactiae; [22],0 CFU
same,Spontaneous Mutation Frequency,S. agalactiae; [22],≤1.73 × 10^−10
same,MPC,S. agalactiae; [18],0.12 µg/mL
same,Average Count,S. pneumonia; [22],0 CFU
same,Count 1,S. pneumonia; [22],0 CFU
same,Count 2,S. pneumonia; [22],0 CFU
same,Spontaneous Mutation Frequency,S. pneumonia; [22],≤9.52 × 10^−10
same,MPC,S. pneumonia; [18],0.25 µg/mL
same,MPC,S. pyogenes,0.12 µg/mL
same,isolates resistant,Bacteroides fragilis,Thirty-three
same,isolates with intermediate resistance,Bacteroides fragilis,27%
same,% I,Bacteroides fragilis; [23],27%
same,% R,Bacteroides fragilis; [23],33%
same,% S,Bacteroides fragilis; [23],40%
same,MIC50,Bacteroides fragilis; [23],32 µg/mL
same,MIC90,Bacteroides fragilis; [23],>128 µg/mL
same,MIC range,Bacteroides fragilis; [23],8 to 128 µg/mL
same,MIC50,"Bacteroides fragilis; Bacteroides fragilis, read-out: MIC50",32 µg/mL
same,MIC90,"Bacteroides fragilis; Bacteroides fragilis, read-out: MIC90",> 128 µg/mL
same,Mode,"Bacteroides fragilis; modal MIC, 30 Bacteroides fragilis clinical isolates",16 µg/mL
same,isolates resistant,Bacteroides non fragilis,72%
same,isolates with intermediate resistance,Bacteroides non fragilis,3%
same,% I,Bacteroides non fragilis; [24],3%
same,% R,Bacteroides non fragilis; [24],72%
same,% S,Bacteroides non fragilis; [24],24%
same,MIC50,Bacteroides non fragilis; [24],>128 µg/mL
same,MIC90,Bacteroides non fragilis; [24],>128 µg/mL
same,MIC range,Bacteroides non fragilis; [24],1 to 128 µg/mL
same,MIC50,"Bacteroides non fragilis; Bacteroides, read-out: MIC50",> 128 µg/mL
same,MIC90,"Bacteroides non fragilis; Bacteroides, read-out: MIC90",> 128 µg/mL
same,Mode,"Bacteroides non fragilis; modal MIC, 29 Bacteroides non-fragilis clinical isolates",>128 µg/mL
same,MIC,E. coli ATCC 25922; E. coli ATCC 25922,0.06 µg/mL
same,MIC,"E. coli ATCC 25922; Escherichia coli, ATCC25922, broth microdilution, read-out: MIC",0.06 µg/mL
same,MIC,E. coli MMX 1312; E. coli MMX 1312,4 µg/mL
same,MIC,"E. coli MMX 1312; Escherichia coli, MMX1312, broth microdilution, read-out: MIC",4 µg/mL
same,MIC,S. pneumoniae ATCC 49619; S. pneumoniae ATCC 49619,0.06 µg/mL
same,MIC,"S. pneumoniae ATCC 49619; Streptococcus pneumoniae, ATCC49619, broth microdilution, read-out: MIC",0.06 µg/mL
same,MIC,"B. ovatus MMX 3503; Bacteroides ovatus, MMX3503, B. ovatus MMX 3504 (so in the source)",> 128 µg/mL
same,MIC,"B. ovatus MMX 3503; Bacteroides ovatus, MMX3503, broth microdilution",> 128 µg/mL
same,MIC,B. ovatus MMX 3503; broth microdilution,128 µg/mL
same,time-kill kinetics outcome (bactericidal = ≥3 log reduction in CFU per mL),S. agalactiae ATCC 13813,"bactericidal effect at 24 hr at 8×MIC, as did ceftriaxone (6 and 24 hr)"
same,MIC,"[4]; B. fragilis and B. ovatus isolates, read-out: initial MIC values (agar dilution)",128 µg/mL
same,MIC,"[4]; Bacteroides fragilis, ATCC25285, read-out: Agar MIC",128 µg/mL
same,MIC,"[4]; Bacteroides ovatus, ATCC25285, read-out: Agar MIC",128 µg/mL
same,MIC,"[4]; Phocaeicola vulgatus, ATCC 25285 / ATCC 8482, read-out: Agar MIC",4 µg/mL
same,MIC,"[4]; over evaluated Bacteroides spp., read-out: MIC values (agar dilution)",4 to 128 µg/mL
